One assay addresses histamine-H1 receptors (Cavia porcellus, UniProt P31389). Description: Histamine-H1 receptor binding assay ([3H]-mepyramine). To be noted: guinea pig cerebellum membranes, 0.7 nM [3H]-mepyramine. The method, then:
(§1) (1) Histamine-H1 Receptor Binding Assay
The study of binding to histamine-H1 receptors was performed in guinea pig cerebellum membranes as described by Chang et al., J. Neurochem, 1979, 32, 1653-1663. Briefly, the membrane suspensions (160 μg/ml) were incubated at 30° C. with 0.7 nM [^3H]-mepyramine and different concentrations of the test compounds in a final volume of 250 μl. Binding reactions were terminated by filtration after 30 min of incubation and the bound radioactivity was determined. The non-specific binding was measured in the presence of 10 μM of promethazine. The affinity of each test compound to the receptor was determined by using at least six different concentrations run in duplicate. IC50 values were obtained by non-linear regression by use of SAS on a DEC AXP computer.

A further assay addresses T1, serotonin-5HT2 receptors (Homo sapiens, UniProt P28223).
T1 construct: performed in human frontal cerebral cortex membranes; from tissue; host or cells: human frontal cerebral cortex membranes
Description: Serotonin-5HT2 receptor binding assay (3H-Ketanserin). The note with it: human frontal cerebral cortex membranes, 1 nM 3H-Ketanserin; read-out: 5HT-2. The method, then: as §1
(3) Serotonin-5HT2 Receptor Binding Assay
The study of binding to serotonin-5HT2 receptors was performed in human frontal cerebral cortex membranes as described previously (Pazos et al., Eur. J. of Pharmacol, 1985, 106, 531-538). Briefly, the membrane suspensions (170 μg/ml) were incubated at 37° C. with 1 nM 3H-Ketanserin and different concentrations of the test compounds in a final volume of 250 μl. Binding reactions were terminated by filtration after 30 minutes of incubation under constant shaking and the bound radioactivity was measured. The non-specific binding was estimated in the presence of 10 μM mianserin. The affinity of each test compound to the receptor was determined by using at least six different concentrations run in duplicate. IC50 values were calculated by non-linear regression using SAS.

Assay [1] has as its system histamine-induced papule (skin vascular permeability). Nature of the assay: Histamine-induced skin vascular permeability in rats. In kind it is in vivo, rat. The note with it: male Wistar rats, oral, 4 h after administration, inhibition of papule area vs vehicle. The method, then:
as §1
(2) Histamine-Induced Skin Vascular Permeability in Rats
Male Wistar rats (180-210 g) were treated orally with the test compound or vehicle. Either one, four, eight or 24 hours later the rats were lightly anaesthetised with ether and a cutaneous reaction was induced by two intradermal injections of 50 μl of histamine (100 μg/ml) onto the back, followed by an intravenous injection of 3 ml/kg of Evan's Blue (5 mg/ml), both dissolved in saline. Sixty minutes later, the rats were killed by cervical dislocation and the back skin dissected free. The diameter (in millimetres) of the papule was measured in two directions and the area was calculated. Results are given as the % of inhibition at a given dose compared with the vehicle treated group.

SMILES strings stand for the structures.

histamine-H1 receptors, sequence (P31389 whole entry): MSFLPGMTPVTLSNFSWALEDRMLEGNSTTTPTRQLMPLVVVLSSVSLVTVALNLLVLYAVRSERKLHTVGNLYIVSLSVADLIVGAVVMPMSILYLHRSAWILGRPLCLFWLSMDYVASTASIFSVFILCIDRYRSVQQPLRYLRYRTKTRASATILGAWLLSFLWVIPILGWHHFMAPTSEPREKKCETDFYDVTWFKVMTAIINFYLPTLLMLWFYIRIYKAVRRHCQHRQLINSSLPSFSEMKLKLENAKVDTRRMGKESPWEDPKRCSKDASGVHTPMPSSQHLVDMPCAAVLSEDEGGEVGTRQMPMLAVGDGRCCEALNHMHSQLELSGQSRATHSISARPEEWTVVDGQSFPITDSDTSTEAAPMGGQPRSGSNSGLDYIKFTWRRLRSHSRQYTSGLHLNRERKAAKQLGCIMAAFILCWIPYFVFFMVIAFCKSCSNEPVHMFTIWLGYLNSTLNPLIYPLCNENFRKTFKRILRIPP
T1 sequence (P28223 whole entry): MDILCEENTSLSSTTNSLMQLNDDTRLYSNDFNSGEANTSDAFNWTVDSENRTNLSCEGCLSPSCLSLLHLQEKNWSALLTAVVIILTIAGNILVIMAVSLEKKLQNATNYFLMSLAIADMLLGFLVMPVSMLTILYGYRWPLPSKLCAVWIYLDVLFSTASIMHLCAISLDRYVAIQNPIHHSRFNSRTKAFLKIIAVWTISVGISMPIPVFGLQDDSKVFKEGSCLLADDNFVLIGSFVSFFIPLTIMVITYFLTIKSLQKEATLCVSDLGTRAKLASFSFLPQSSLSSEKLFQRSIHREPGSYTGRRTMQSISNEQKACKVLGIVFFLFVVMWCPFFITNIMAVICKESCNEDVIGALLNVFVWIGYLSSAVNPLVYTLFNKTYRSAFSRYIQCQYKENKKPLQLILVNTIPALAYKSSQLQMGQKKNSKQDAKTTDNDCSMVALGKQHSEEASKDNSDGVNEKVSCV

Turning to `CCCCn1cc(C2CCN(Cc3ccc(OC)c(C(=O)O)c3)CC2)c2ccccc21` [Example 3, 5-[4-(1-butyl-1H-indol-3-yl)-piperidin-1-ylmethyl]-2-methoxybenzoic acid], the IC50 at histamine-H1 receptors is 130 nM; at serotonin-5HT2 receptors it was 4.5 µM. In assay [1], the “papule (4h) % inh a 1 mg/Kg” value is 100%.
Consider `CCOCCn1cc(C2CCN(Cc3ccc(OC)c(C(=O)O)c3)CC2)c2ccccc21` [Example 1, 5-{4-[1-(2-ethoxyethyl)-1H-indol-3-yl]piperidin-1-ylmethyl}-2-methoxybenzoic acid], for which the IC50 was determined as 145 nM at histamine-H1 receptors and 5.35 µM at serotonin-5HT2 receptors. For the same molecule, in assay [1], the “papule (4h) % inh a 1 mg/Kg” value is recorded as 88%.
With `COCCn1cc(C2CCN(Cc3ccc(OC)c(C(=O)O)c3)CC2)c2ccc(F)cc21` [Example 5, 5-{4-[6-fluoro-1-(2-methoxyethyl)-1H-indol-3-yl]piperidin-1-ylmethyl}-2-methoxybenzoic acid], the IC50 is 245 nM at histamine-H1 receptors and greater than 10 µM at serotonin-5HT2 receptors. In assay [1], the “papule (4h) % inh a 1 mg/Kg” value was 96%.
`COCCn1cc(C2CCN(Cc3ccc(OC)c(C(=O)O)c3)CC2)c2ccccc21` [Example 2, 2-methoxy-5-{4-[1-(2-methoxyethyl)-1H-indol-3-yl]piperidin-1-ylmethyl}benzoic acid]: the IC50 on histamine-H1 receptors is 470 nM; on serotonin-5HT2 receptors, greater than 10 µM. Also, the “papule (4h) % inh a 1 mg/Kg” value in assay [1] was determined as 96%.
As to `CCOCCn1cc(C2CCN(Cc3ccc(OC)c(C(=O)O)c3)CC2)c2ccc(F)cc21` [Example 4, 5-{4-[1-(2-ethoxyethyl)-6-fluoro-1H-indol-3-yl]piperidin-1-ylmethyl}-2-methoxybenzoic acid], the IC50 at histamine-H1 receptors was 160 nM; on serotonin-5HT2 receptors, 4.3 µM. For the same molecule, the “papule (4h) % inh a 1 mg/Kg” value in assay [1] was 89%.
